Measured values as given in US20070059385A1, “Safe pharmaceutical composition for treating and preventing cancer and method of use” (priority 2005, published 2007).

Assay: Metabolism (organ and blood radioactivity) of [^3H]-HHT in P388 mice
Type: in vivo
Conditions: blood
Procedure: Animals: Adult DBA/2J male mice, 6 to 8 weeks old. All animals weighed approximately 25 g when used in experiments. Each member of which received identical dosed (i.p.) of HHT.
Tumor: P388 leukemic cells induced in mice by inoculation with L1210 or P388 leukemic cells ([…]).
After P388 induced in mice 5 days, 1 mg/kg of [^3H]-HHT (100 μC/mg) was injected to mice. Volumes were 0.01 ml/g body weight. […] The key data of HHT in metabolism process are determined counts per minute (CPM) of [^3H]-HHT in organs. CPM is determined by liquid scintillation counting (LSC). The methods of LSC combined with radioactive of [^3H]-HHT can be determined using a tracer of HHT in organs. After killed animals, organs and blood were obtained from P388 mice. Organs were weighted. 10 mg of organs were digested. 10 ml of scintillation solution (which containing […]) were added to digested solution and determined at LSC. Other processes are similar to the standard method.

COC(=O)C[C@](O)(CCCC(C)(C)O)C(=O)O[C@@H]1C(OC)=C[C@]23CCCN2CCc2cc4c(cc2[C@H]13)OCO4 [[^3H]-HHT]
[^3H]-HHT in blood (1 h): 1820 CPM
[^3H]-HHT in blood (2 h): 1650 CPM
[^3H]-HHT in blood (4 h): 1100 CPM
[^3H]-HHT in blood (8 h): 920 CPM
[^3H]-HHT in blood (16 h): 428 CPM
[^3H]-HHT in blood (24 h): 150 CPM
